In the NIST ThermoML archive (doi:10.1016/j.jct.2011.07.008):
± gives the expanded uncertainty stated by the source.

Columns and labels:
[1] = mn = molality of the nth substance listed, in mol/kg; conditions: 101 kPa, Liquid; for viscosity: Capillary tube (Ostwald / Ubbelohde) method
[2] = 298.15 K; 101.33 kPa; Liquid; Pycnometric method
[3] = refractive index (Na D-line) (dimensionless); conditions: 298.15 K; 101.33 kPa; Liquid; Standard Abbe refractometry

COCCOCCO [2-(2-methoxyethoxy)ethanol] + O
[1]
Conditions | viscosity [mPa·s]
275.15 K, m1 = 0.0099 | 1.004 ± 0.041
275.15 K, m1 = 0.0209 | 1.009 ± 0.041
275.15 K, m1 = 0.0309 | 1.014 ± 0.041
275.15 K, m1 = 0.0396 | 1.018 ± 0.041
275.15 K, m1 = 0.052 | 1.023 ± 0.041
275.15 K, m1 = 0.061 | 1.028 ± 0.042
275.15 K, m1 = 0.0706 | 1.032 ± 0.042
275.15 K, m1 = 0.0799 | 1.037 ± 0.042
275.15 K, m1 = 0.093 | 1.044 ± 0.042
275.15 K, m1 = 0.1057 | 1.05 ± 0.042
283.15 K, m1 = 0.0109 | 1.004 ± 0.041
283.15 K, m1 = 0.0191 | 1.008 ± 0.041
283.15 K, m1 = 0.0303 | 1.012 ± 0.041
283.15 K, m1 = 0.0406 | 1.016 ± 0.041
283.15 K, m1 = 0.0487 | 1.02 ± 0.041
283.15 K, m1 = 0.0599 | 1.024 ± 0.041
283.15 K, m1 = 0.0709 | 1.029 ± 0.042
283.15 K, m1 = 0.0806 | 1.033 ± 0.042
283.15 K, m1 = 0.09 | 1.037 ± 0.042
283.15 K, m1 = 0.0901 | 1.037 ± 0.042
283.15 K, m1 = 0.1009 | 1.041 ± 0.042

[1]
Conditions | mass density [kg/m3]
275.15 K, Pycnometric method, m1 = 0.0099 | 1000.07 ± 0.33
275.15 K, Pycnometric method, m1 = 0.0209 | 1000.18 ± 0.33
275.15 K, Pycnometric method, m1 = 0.0309 | 1000.32 ± 0.33
275.15 K, Pycnometric method, m1 = 0.0396 | 1000.42 ± 0.33
275.15 K, Pycnometric method, m1 = 0.052 | 1000.56 ± 0.33
275.15 K, Pycnometric method, m1 = 0.061 | 1000.66 ± 0.33
275.15 K, Pycnometric method, m1 = 0.0706 | 1000.76 ± 0.33
275.15 K, Pycnometric method, m1 = 0.0799 | 1000.86 ± 0.33
275.15 K, Pycnometric method, m1 = 0.093 | 1000.98 ± 0.33
275.15 K, Pycnometric method, m1 = 0.1057 | 1001.12 ± 0.33
283.15 K, Buoyancy - hydrostatic balance with magnetic suspension - one sinker, m1 = 0.0109 | 999.8 ± 0.23
283.15 K, Buoyancy - hydrostatic balance with magnetic suspension - one sinker, m1 = 0.0191 | 999.93 ± 0.23
283.15 K, Buoyancy - hydrostatic balance with magnetic suspension - one sinker, m1 = 0.0303 | 1000.04 ± 0.23
283.15 K, Buoyancy - hydrostatic balance with magnetic suspension - one sinker, m1 = 0.0406 | 1000.11 ± 0.23
283.15 K, Buoyancy - hydrostatic balance with magnetic suspension - one sinker, m1 = 0.0487 | 1000.17 ± 0.23
283.15 K, Buoyancy - hydrostatic balance with magnetic suspension - one sinker, m1 = 0.0599 | 1000.27 ± 0.23
283.15 K, Buoyancy - hydrostatic balance with magnetic suspension - one sinker, m1 = 0.0709 | 1000.38 ± 0.23
283.15 K, Buoyancy - hydrostatic balance with magnetic suspension - one sinker, m1 = 0.0806 | 1000.47 ± 0.23
283.15 K, Buoyancy - hydrostatic balance with magnetic suspension - one sinker, m1 = 0.09 | 1000.56 ± 0.23
283.15 K, Buoyancy - hydrostatic balance with magnetic suspension - one sinker, m1 = 0.0901 | 1000.59 ± 0.23
283.15 K, Buoyancy - hydrostatic balance with magnetic suspension - one sinker, m1 = 0.1009 | 1000.68 ± 0.23

CCOCCOCCO [3,6-dioxa-1-octanol]
Conditions | mass density [kg/m3] | refractive index
[2] | 984.045 ± 1.6 | –
[3] | – | 1.4253 ± 0.0008

O [water] + CCOCCO
[1], m2 = 0
Conditions | viscosity [mPa·s]
275.15 K | 1.674 ± 0.069
283.15 K | 1.31 ± 0.054

[1], m2 = 0
Conditions | mass density [kg/m3]
275.15 K, Pycnometric method | 999.94 ± 0.33
283.15 K, Buoyancy - hydrostatic balance with magnetic suspension - one sinker | 999.7 ± 0.23

CCOCCOCCO [3,6-dioxa-1-octanol] + O
viscosity [mPa·s], [1]
Conditions | 275.15 K | 283.15 K
m1 = 0.0092 | – | 1.004 ± 0.041
m1 = 0.0108 | 1.008 ± 0.041 | –
m1 = 0.019 | – | 1.008 ± 0.041
m1 = 0.0203 | 1.015 ± 0.041 | –
m1 = 0.0291 | – | 1.013 ± 0.041
m1 = 0.0306 | 1.022 ± 0.041 | –
m1 = 0.0409 | 1.029 ± 0.042 | –
m1 = 0.0416 | – | 1.019 ± 0.041
m1 = 0.0482 | – | 1.023 ± 0.041
m1 = 0.0504 | 1.035 ± 0.042 | –
m1 = 0.062 | – | 1.03 ± 0.042
m1 = 0.0625 | 1.043 ± 0.042 | –
m1 = 0.0687 | – | 1.034 ± 0.042
m1 = 0.0707 | 1.048 ± 0.042 | –
m1 = 0.0796 | – | 1.041 ± 0.042
m1 = 0.0809 | 1.053 ± 0.043 | –
m1 = 0.0904 | 1.058 ± 0.043 | 1.047 ± 0.042
m1 = 0.091 | – | 1.047 ± 0.042
m1 = 0.0998 | – | 1.053 ± 0.043
m1 = 0.1019 | – | 1.054 ± 0.043
m1 = 0.1025 | 1.047 ± 0.042 | –

[1]
Conditions | mass density [kg/m3]
275.15 K, Pycnometric method, m1 = 0.0108 | 1000.05 ± 0.33
275.15 K, Pycnometric method, m1 = 0.0203 | 1000.15 ± 0.33
275.15 K, Pycnometric method, m1 = 0.0306 | 1000.23 ± 0.33
275.15 K, Pycnometric method, m1 = 0.0409 | 1000.34 ± 0.33
275.15 K, Pycnometric method, m1 = 0.0504 | 1000.42 ± 0.33
275.15 K, Pycnometric method, m1 = 0.0625 | 1000.52 ± 0.33
275.15 K, Pycnometric method, m1 = 0.0707 | 1000.62 ± 0.33
275.15 K, Pycnometric method, m1 = 0.0809 | 1000.69 ± 0.33
275.15 K, Pycnometric method, m1 = 0.0904 | 1000.79 ± 0.33
275.15 K, Pycnometric method, m1 = 0.1025 | 1000.86 ± 0.33
283.15 K, Buoyancy - hydrostatic balance with magnetic suspension - one sinker, m1 = 0.0092 | 999.77 ± 0.23
283.15 K, Buoyancy - hydrostatic balance with magnetic suspension - one sinker, m1 = 0.019 | 999.8 ± 0.23
283.15 K, Buoyancy - hydrostatic balance with magnetic suspension - one sinker, m1 = 0.0291 | 999.96 ± 0.23
283.15 K, Buoyancy - hydrostatic balance with magnetic suspension - one sinker, m1 = 0.0416 | 1000.08 ± 0.23
283.15 K, Buoyancy - hydrostatic balance with magnetic suspension - one sinker, m1 = 0.0482 | 1000.09 ± 0.23
283.15 K, Buoyancy - hydrostatic balance with magnetic suspension - one sinker, m1 = 0.062 | 1000.22 ± 0.23
283.15 K, Buoyancy - hydrostatic balance with magnetic suspension - one sinker, m1 = 0.0687 | 1000.23 ± 0.23
283.15 K, Buoyancy - hydrostatic balance with magnetic suspension - one sinker, m1 = 0.0796 | 1000.34 ± 0.23
283.15 K, Buoyancy - hydrostatic balance with magnetic suspension - one sinker, m1 = 0.0904 | 1000.41 ± 0.23
283.15 K, Buoyancy - hydrostatic balance with magnetic suspension - one sinker, m1 = 0.091 | 1000.39 ± 0.23
283.15 K, Buoyancy - hydrostatic balance with magnetic suspension - one sinker, m1 = 0.0998 | 1000.48 ± 0.23
283.15 K, Buoyancy - hydrostatic balance with magnetic suspension - one sinker, m1 = 0.1019 | 1000.46 ± 0.23

O [water] + CCOCCOCCO
[1], m2 = 0
Conditions | viscosity [mPa·s]
275.15 K | 1.674 ± 0.069
283.15 K | 1.31 ± 0.053

[1], m2 = 0
Conditions | mass density [kg/m3]
275.15 K, Pycnometric method | 999.94 ± 0.33
283.15 K, Buoyancy - hydrostatic balance with magnetic suspension - one sinker | 999.7 ± 0.23

O [water] + COCCOCCO
[1], m2 = 0
Conditions | viscosity [mPa·s]
275.15 K | 1.674 ± 0.069
283.15 K | 1.31 ± 0.053

[1], m2 = 0
Conditions | mass density [kg/m3]
275.15 K, Pycnometric method | 999.94 ± 0.33
283.15 K, Buoyancy - hydrostatic balance with magnetic suspension - one sinker | 999.7 ± 0.23

COCCO [2-methoxyethan-1-ol]
Conditions | mass density [kg/m3] | refractive index
[2] | 959.03 ± 1.5 | –
[3] | – | 1.4003 ± 0.0008
